# From PMC13192270, “RhlR quorum-sensing receptor ligand sensitivity regulates the differential expression of phenazine genes in Pseudomonas aeruginosa” (Journal of Bacteriology, 2026)
# Key:
# [1] = target: T1, RhlR A44M in ΔrhlI strain (Pseudomonas aeruginosa, UniProt P54292, A44M); assay: ChIP-seq of RhlR-binding sites; type: cell-based; conditions: 2 µM C4HSL
# T1 construct: expressed in transfected cells; host or cells: P. aeruginosa UCBPP-PA14 ΔrhlI, mutant allele placed on the chromosome at the native rhlR locus
# T1 sequence (P54292 1-241 A44M): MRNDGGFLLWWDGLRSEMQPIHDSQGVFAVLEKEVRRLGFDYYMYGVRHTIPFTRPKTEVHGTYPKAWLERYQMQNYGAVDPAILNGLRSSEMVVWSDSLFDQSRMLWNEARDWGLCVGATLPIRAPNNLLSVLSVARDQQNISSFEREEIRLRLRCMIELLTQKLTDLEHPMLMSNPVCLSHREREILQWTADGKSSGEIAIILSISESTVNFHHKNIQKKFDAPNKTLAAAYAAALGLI
# Experimental: P. aeruginosa strains were grown overnight, back diluted 1:100 in fresh LB media, and grown to an OD600 = 2.0. Crosslinking, lysis, and immunoprecipitation were performed as previously described ([37]).
# [2] = system: pyocyanin production; conditions: cited from earlier work
smiles,measurement,setting,value
"CCCC(=O)N[C@H]1CCOC1=O [C4HSL, N-butyryl-L-homoserine lactone]","ChIP-seq enrichment at PA14_01490 (rahU) (peak 139,733)",[1],36.29
same,"ChIP-seq enrichment at PA14_06320 (peak 560,072)",[1],207.8
same,"ChIP-seq enrichment at PA14_10360 (peak 895,433)",[1],557.9
same,"ChIP-seq enrichment at PA14_16100*, PA14_16110 (peak 1,372,370)",[1],41.27
same,"ChIP-seq enrichment at PA14_18800 (peak 1,620,628)",[1],459
same,"ChIP-seq enrichment at PA14_18810 operon (peak 1,621,028)",[1],216.7
same,"ChIP-seq enrichment at PA14_20130, PA14_20140 (fpr) (peak 1,735,823)",[1],187.2
same,"ChIP-seq enrichment at PA14_21020 (azeB) operon, PA14_21030 (peak 1,816,906)",[1],"2,385.1"
same,"ChIP-seq enrichment at PA14_22090 (peak 1,921,598)",[1],403.3
same,"ChIP-seq enrichment at PA14_28250*, PA14_28260 (peak 2,444,398)",[1],18.9
same,"ChIP-seq enrichment at PA14_29620, fhp operon (peak 2,568,048)",[1],698.1
same,"ChIP-seq enrichment at PA14_30570, PA14_30580 (vqsR) (peak 2,647,472)",[1],454.9
same,"ChIP-seq enrichment at PA14_30840* (peak 2,677,542)",[1],631.2
same,"ChIP-seq enrichment at PA14_37745 operon (peak 3,364,761)",[1],0
same,"ChIP-seq enrichment at PA14_48140 operon (peak 4,285,523)",[1],89.06
same,"ChIP-seq enrichment at PA14_48530 operon (peak 4,313,855)",[1],870.2
same,"ChIP-seq enrichment at PA14_49310 (peak 4,382,169)",[1],273.4
same,"ChIP-seq enrichment at PA14_49740, PA14_49750 operon (peak 4,425,570)",[1],518.7
same,"ChIP-seq enrichment at PA14_57970*, PA14_57980 (peak 5,159,548)",[1],16.73
same,"ChIP-seq enrichment at PA14_59180* (peak 5,268,881)",[1],320.1
same,"ChIP-seq enrichment at PA_48530* (peak 4,314,560)",[1],476.8
same,"ChIP-seq enrichment at arcD operon (peak 6,093,032)",[1],97.46
same,"ChIP-seq enrichment at hcnA operon, exoY (peak 3,236,436)",[1],998.8
same,"ChIP-seq enrichment at hsiA2 operon, hcpD (peak 3,831,541)",[1],840.8
same,"ChIP-seq enrichment at lasA (peak 3,600,666)",[1],0
same,"ChIP-seq enrichment at lasB (peak 1,387,361)",[1],155.1
same,"ChIP-seq enrichment at lecB, PA14_20620 operon (peak 1,774,336)",[1],"3,659.5"
same,"ChIP-seq enrichment at pa1L (peak 2,721,761)",[1],431.4
same,"ChIP-seq enrichment at peak 5,414,219",[1],86.36
same,"ChIP-seq enrichment at phzA1 operon, phzM (peak 813,529)",[1],"1,47.87"
same,"ChIP-seq enrichment at phzA2 operon (peak 3,561,969)",[1],134.6
same,"ChIP-seq enrichment at phzB1*, phzC1 (peak 812,427)",[1],872.5
same,"ChIP-seq enrichment at phzB2*, phzC2 (peak 3,561,157)",[1],241.2
same,"ChIP-seq enrichment at phzH (peak 64,211)",[1],"1,287.1"
same,"ChIP-seq enrichment at rhlA operon (peak 1,648,391)",[1],636
same,"ChIP-seq enrichment at rhlI (peak 1,651,804)",[1],425
same,"ChIP-seq enrichment at rmlB operon (peak 6,082,366)",[1],428.1
same,"ChIP-seq enrichment at rpsL operon (peak 754,615)",[1],128.1
same,"ChIP-seq enrichment at tnpS, tnpT operon (peak 3,188,223)",[1],255
same,C4HSL concentration above which pyocyanin production is lost,[2],> 5 µM
same,C4HSL concentration below which pyocyanin production is lost,[2],< 500 nM
